Literature values in patent publication US20050032777A1, “Diazacycloalkanes as oxytocin agonists” (priority 2001, published 2005).
Where two headings read alike, the source gives them in different places.

Test system: erectile response
Conditions: male rats

CC[C@H](C)[C@@H]1NC(=O)[C@H](Cc2ccc(O)cc2)NC(=O)[C@@H](N)CSSC[C@@H](C(=O)N2CCC[C@H]2C(=O)N[C@@H](CC(C)C)C(=O)NCC(N)=O)NC(=O)[C@H](CC(N)=O)NC(=O)[C@H](CCC(N)=O)NC1=O [OT, oxytocin]
erectogenic activity (i.c.v.): erectogenic
erectogenic activity (iv., doses up to two orders of magnitude greater than i.c.v.): erectogenic activity
